Like-named read-outs stand apart in the source and are kept apart here.
Key:
[1] = Water solubility in 100 g of water at 25° C.
Source text: As used herein, the term “solubility” in regard to water solubility includes cases where the sample completely dissolves in deionized water to form a homogeneous mixture, and cases where the sample is completely emulsified. As used herein, “completely” means that no mass of the sample remains in the deionized water.

[2] = Rewetting rate of sanitary napkin; settings: Example 2: agent coated on top sheet only, about 5 g/m^2; horse EDTA blood
Protocol: (obtained by adding ethylenediaminetetraacetic acid (hereunder, “EDTA”) to horse blood to prevent coagulation) was dropped through the hole using a pipette (once), and after 1 minute, 3 g of horse EDTA blood at 37±1° C. was again added dropwise through the acrylic board hole with a pipette (twice).
After the second dropping of blood, the acrylic board was immediately removed and 10 sheets of filter paper (50 mm×35 mm) were placed on the location where the blood had been dropped, and then a weight was placed thereover to a pressure of 30 g/cm^2. After 1 minute, the filter paper was removed and the “rewetting rate” was calculated by the following formula. Rewetting rate (%)=100×(filter paper mass after test−initial filter paper mass)/6

[3] = Absorbent body migration rate; settings: Example 2: agent coated on top sheet only, about 5 g/m^2; horse EDTA blood
Protocol: In addition to the rewetting rate evaluation, the “absorbent body migration rate” was also measured as the time until migration of blood from the top sheet to the absorbent body after the second dropping of blood. The absorbent body migration rate is the time from […].

[4] = Surface tension of blood containing blood modifying agent (pendant drop method); set-up: species or system sheep; settings: Amount 0.10 mass %; measuring temperature 35° C.
Protocol: The surface tension of blood containing a blood modifying agent was measured by the pendant drop method, using a Drop Master500 contact angle meter by Kyowa Interface Science Co., Ltd. The surface tension was measured after adding a prescribed amount of blood modifying agent to sheep defibrinated blood, and thoroughly shaking. The measurement was accomplished automatically with a device, and the surface tension γ was determined by the following formula (see FIG. 8). γ=g×ρ×(de)^2×1/H The density ρ was measured at the temperatures listed in Table 6, according to JIS K 2249-1995, “Density test methods and density/mass/volume conversion tables”, “5. Vibrating density test method”. The measurement was accomplished using a DA-505 by Kyoto Electronics Co., Ltd.

Row | Compound | Rewetting rate (%) [2] [%] | Absorbent body migration rate [3] [s] | Water solubility [1] [g] | further results
1 | CCCCCCCC(=O)OCC(COC(=O)CCCCCCC)OC(=O)CCCCCCC [No. 2-8, Glycerin and fatty acid triester with octanoic acid (C8) as the entire fatty acid portion] | 0.3 | 3 | – | Water solubility ([1]; in 100 g of water at 25° C., 24 hours, visual): <0.05 g
2 | CCCCC(CC)C(=O)OCC(C)(C)COC(=O)C(CC)CCCC (stereo not drawn) [No. 2-15, Neopentylglycol di-2-ethylhexanoate] | 2.0 | 5 | <0.05 | –
3 | CCCCCCCCOC(=O)CCCCC(=O)OCCCCCCCC [No. 2-16, Dioctyl adipate] | 1.7 | 6 | – | –
4 | CCCCCCCCCCCCOC(=O)CCCCCCCCCCC [No. 2-17, Ester of dodecanoic acid (C12) and dodecyl alcohol (C12)] | 1.8 | 5 | – | Surface tension (mN/m) [4]: 58.8 mN/m
5 | CCCCCCCCCCCCCC(=O)OCCCCCCCCCCCC [No. 2-18, Ester of tetradecanoic acid (C14) and dodecyl alcohol (C12)] | 1.8 | 4 | – | –
6 | CCCCCCCCCCCC(=O)OCC(O)CO (stereo not drawn) [No. 2-31, lauric acid monoglyceride] | 6.2 | – | – | –
7 | Glycerin and fatty acid diester with octanoic acid as the fatty acid [No. 2-12] | 4.2 | 9 | – | –
8 | Glycerin and fatty acid triester with 2-ethylhexanoic acid (CO as the entire fatty acid portion [No. 2-9] | 2.0 | 3 | – | –
9 | Isopropyl citrate [No. 2-34] | 12.2 | 5 | – | –
10 | Polybutylene glycol [No. 2-23] | – | – | <0.05 | –
11 | Polyoxybutylenepolyoxypropylene glycol [No. 2-24] | – | – | <0.05 | –
12 | Polypropylene glycol [No. 2-19] | – | – | <0.05 | –
13 | Polypropylene glycol [No. 2-20] | – | – | <0.05 | –
14 | Polypropylene glycol [No. 2-21] | – | – | <0.05 | –
15 | Polypropylene glycol [No. 2-22] | – | – | <0.05 | –
16 | Polypropylene glycol [No. 2-35] | – | – | – | Water solubility (g) [1]: 0.05< g

Source: patent publication US9770526B2, “Absorbent article” (priority 2011, dated 2017)
